Test results from PMC4770715, “LIM kinase inhibitors disrupt mitotic microtubule organization and impair tumor cell proliferation” (Oncotarget, 2015).

Key:
Assay in all cases: biochemical
Parameters in all cases: KINOMEscan active-site competition binding, percent of control (100 = no competition)
Details in all cases: competition binding, percent control
[1] = molecular target: T1, RSK4(Kin.Dom.2-C-terminal) (Homo sapiens, UniProt Q9UK32)
T1 construct: gene RPS6KA6; Kin.Dom.2-C-terminal

NEK5 = NEK5 (Homo sapiens, UniProt Q6P3R8)
IRAK3 = IRAK3 (Homo sapiens, UniProt Q9Y616)
CDC2L2 = molecular target: T2, CDC2L2 (Homo sapiens, UniProt Q9UQ88)
T2 construct: gene CDK11A

FYN = FYN (Homo sapiens, UniProt P06241)
ABL1-phosphorylated = molecular target: T3, ABL1-phosphorylated (Homo sapiens, UniProt P00519)
T3 construct: phosphorylated

CDKL1 = CDKL1 (Homo sapiens, UniProt Q00532)
LIMK2 = LIMK2 (Homo sapiens, UniProt P53671)
AMPK-alpha1 = molecular target: T4, AMPK-alpha1 (Homo sapiens, UniProt Q13131)
T4 construct: gene PRKAA1

CSNK2A1 = CSNK2A1 (Homo sapiens, UniProt P68400)
CSNK1A1 = CSNK1A1 (Homo sapiens, UniProt P48729)
EPHA5 = EPHA5 (Homo sapiens, UniProt P54756)
[2] = molecular target: T5, RPS6KA5(Kin.Dom.1-N-terminal) (Homo sapiens, UniProt O75582)
T5 construct: Kin.Dom.1-N-terminal

TNK1 = TNK1 (Homo sapiens, UniProt Q13470)
MYLK = MYLK (Homo sapiens, UniProt Q15746)
ERK1 = molecular target: T6, ERK1 (Homo sapiens, UniProt P27361)
T6 construct: gene MAPK3

MYLK2 = MYLK2 (Homo sapiens, UniProt Q9H1R3)
MYO3A = MYO3A (Homo sapiens, UniProt Q8NEV4)
DYRK1A = DYRK1A (Homo sapiens, UniProt Q13627)
FLT3(D835H) = FLT3(D835H) (Homo sapiens, UniProt P36888, D835H)
[3] = molecular target: EGFR(L747-E749del, A750P) (Homo sapiens, UniProt P00533, A750P/DEL747-749)
FGFR1 = FGFR1 (Homo sapiens, UniProt P11362)
FGFR1, sequence (P11362 whole entry): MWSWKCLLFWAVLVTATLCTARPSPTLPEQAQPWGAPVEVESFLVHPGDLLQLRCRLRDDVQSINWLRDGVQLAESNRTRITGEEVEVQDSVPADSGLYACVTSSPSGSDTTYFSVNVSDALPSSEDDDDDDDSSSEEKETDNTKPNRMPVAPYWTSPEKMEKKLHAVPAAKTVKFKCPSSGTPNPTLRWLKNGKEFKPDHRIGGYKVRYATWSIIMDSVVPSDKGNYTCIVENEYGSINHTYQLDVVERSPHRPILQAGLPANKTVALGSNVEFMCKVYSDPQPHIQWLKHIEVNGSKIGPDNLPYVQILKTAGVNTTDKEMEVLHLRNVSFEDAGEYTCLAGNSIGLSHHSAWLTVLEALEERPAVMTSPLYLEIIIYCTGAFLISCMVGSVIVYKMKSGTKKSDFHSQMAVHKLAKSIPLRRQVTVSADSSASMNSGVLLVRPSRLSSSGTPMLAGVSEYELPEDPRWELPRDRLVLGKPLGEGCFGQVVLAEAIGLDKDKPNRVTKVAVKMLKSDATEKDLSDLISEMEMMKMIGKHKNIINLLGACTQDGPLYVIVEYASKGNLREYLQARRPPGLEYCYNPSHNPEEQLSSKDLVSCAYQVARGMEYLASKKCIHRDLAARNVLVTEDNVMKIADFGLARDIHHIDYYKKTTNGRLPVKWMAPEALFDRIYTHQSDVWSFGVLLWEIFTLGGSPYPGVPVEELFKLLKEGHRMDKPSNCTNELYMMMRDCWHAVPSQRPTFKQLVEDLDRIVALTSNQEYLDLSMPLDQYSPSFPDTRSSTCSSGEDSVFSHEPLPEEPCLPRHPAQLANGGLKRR

MYLK2, sequence (Q9H1R3 whole entry): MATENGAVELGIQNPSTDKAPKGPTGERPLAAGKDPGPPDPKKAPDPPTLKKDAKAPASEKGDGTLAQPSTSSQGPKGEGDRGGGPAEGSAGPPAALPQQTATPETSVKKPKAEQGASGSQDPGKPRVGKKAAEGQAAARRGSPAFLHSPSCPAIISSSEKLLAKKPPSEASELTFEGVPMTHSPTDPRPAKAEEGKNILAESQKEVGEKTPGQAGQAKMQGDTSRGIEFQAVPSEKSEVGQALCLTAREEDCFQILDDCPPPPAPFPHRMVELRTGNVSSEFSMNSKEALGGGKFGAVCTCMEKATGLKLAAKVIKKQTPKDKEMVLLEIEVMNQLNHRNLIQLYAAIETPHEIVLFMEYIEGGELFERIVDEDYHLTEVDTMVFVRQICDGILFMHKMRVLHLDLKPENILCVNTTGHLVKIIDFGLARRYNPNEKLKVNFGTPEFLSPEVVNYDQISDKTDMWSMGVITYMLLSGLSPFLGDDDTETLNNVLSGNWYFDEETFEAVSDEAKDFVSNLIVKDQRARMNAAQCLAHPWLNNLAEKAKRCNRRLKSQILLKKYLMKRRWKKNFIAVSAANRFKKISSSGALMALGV
T5 sequence (O75582 whole entry): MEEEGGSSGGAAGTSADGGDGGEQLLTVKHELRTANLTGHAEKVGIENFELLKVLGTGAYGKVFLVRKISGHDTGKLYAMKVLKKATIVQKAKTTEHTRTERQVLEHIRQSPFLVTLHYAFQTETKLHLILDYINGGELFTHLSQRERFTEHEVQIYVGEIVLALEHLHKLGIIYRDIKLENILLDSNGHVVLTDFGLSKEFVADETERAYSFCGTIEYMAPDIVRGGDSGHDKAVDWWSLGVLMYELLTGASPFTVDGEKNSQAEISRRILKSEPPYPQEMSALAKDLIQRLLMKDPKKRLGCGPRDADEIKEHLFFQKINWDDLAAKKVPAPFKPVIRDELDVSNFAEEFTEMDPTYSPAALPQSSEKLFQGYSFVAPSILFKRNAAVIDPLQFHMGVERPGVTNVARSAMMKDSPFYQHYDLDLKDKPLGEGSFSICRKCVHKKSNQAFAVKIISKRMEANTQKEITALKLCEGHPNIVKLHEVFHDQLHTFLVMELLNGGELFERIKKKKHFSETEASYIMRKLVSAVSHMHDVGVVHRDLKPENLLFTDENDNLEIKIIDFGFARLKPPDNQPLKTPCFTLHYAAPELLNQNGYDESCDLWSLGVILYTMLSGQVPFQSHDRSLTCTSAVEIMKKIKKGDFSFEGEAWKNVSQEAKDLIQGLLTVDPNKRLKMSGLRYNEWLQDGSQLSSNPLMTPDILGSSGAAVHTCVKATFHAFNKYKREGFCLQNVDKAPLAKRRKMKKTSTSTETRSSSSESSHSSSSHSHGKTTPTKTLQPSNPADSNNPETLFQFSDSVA
IRAK3, sequence (Q9Y616 whole entry): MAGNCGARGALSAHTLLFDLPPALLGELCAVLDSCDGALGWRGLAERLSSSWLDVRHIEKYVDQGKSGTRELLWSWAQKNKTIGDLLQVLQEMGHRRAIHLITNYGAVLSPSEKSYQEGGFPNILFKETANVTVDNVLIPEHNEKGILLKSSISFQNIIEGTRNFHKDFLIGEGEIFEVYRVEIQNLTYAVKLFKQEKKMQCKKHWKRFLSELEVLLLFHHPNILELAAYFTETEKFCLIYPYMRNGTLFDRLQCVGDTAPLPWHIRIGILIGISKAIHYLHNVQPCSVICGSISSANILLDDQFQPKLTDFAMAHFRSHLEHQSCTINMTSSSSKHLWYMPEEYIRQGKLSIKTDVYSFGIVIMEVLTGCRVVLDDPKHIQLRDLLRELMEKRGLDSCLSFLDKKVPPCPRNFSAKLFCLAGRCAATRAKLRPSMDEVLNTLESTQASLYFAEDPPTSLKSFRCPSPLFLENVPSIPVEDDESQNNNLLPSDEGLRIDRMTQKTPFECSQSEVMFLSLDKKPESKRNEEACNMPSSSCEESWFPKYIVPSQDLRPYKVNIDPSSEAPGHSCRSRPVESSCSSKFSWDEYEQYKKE
TNK1, sequence (Q13470 whole entry): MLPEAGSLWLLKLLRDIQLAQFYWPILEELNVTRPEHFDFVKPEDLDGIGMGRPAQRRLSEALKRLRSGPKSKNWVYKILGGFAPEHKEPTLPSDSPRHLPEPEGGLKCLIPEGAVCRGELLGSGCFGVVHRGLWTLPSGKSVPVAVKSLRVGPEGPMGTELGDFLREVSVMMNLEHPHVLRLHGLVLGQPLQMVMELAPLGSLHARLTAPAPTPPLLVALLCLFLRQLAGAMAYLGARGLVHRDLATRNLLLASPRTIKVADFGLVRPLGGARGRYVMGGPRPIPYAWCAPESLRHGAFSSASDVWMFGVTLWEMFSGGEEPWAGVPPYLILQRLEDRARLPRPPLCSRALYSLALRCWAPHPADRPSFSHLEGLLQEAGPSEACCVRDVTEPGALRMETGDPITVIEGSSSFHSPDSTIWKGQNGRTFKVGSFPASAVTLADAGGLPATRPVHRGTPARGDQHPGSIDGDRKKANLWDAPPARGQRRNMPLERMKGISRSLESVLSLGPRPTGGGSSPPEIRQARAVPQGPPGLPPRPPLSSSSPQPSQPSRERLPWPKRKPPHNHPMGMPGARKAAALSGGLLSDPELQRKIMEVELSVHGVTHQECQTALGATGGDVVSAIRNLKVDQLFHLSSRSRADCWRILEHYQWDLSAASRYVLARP
T4 sequence (Q13131 whole entry): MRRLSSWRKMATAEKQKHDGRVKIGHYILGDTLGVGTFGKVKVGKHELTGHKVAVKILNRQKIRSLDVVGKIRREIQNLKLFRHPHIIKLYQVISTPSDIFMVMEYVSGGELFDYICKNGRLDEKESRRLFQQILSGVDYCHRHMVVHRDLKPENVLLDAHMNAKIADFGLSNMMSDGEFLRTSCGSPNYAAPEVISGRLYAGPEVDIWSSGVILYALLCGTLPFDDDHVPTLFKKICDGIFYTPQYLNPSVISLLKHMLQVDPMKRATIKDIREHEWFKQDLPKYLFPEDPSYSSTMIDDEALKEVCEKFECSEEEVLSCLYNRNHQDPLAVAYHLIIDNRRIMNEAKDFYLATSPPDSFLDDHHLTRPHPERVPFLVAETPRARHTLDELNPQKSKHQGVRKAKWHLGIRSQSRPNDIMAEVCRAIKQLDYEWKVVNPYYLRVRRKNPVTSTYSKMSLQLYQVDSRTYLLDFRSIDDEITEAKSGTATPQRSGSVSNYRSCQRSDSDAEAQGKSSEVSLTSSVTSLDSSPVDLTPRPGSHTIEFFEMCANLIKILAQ
NEK5, sequence (Q6P3R8 whole entry): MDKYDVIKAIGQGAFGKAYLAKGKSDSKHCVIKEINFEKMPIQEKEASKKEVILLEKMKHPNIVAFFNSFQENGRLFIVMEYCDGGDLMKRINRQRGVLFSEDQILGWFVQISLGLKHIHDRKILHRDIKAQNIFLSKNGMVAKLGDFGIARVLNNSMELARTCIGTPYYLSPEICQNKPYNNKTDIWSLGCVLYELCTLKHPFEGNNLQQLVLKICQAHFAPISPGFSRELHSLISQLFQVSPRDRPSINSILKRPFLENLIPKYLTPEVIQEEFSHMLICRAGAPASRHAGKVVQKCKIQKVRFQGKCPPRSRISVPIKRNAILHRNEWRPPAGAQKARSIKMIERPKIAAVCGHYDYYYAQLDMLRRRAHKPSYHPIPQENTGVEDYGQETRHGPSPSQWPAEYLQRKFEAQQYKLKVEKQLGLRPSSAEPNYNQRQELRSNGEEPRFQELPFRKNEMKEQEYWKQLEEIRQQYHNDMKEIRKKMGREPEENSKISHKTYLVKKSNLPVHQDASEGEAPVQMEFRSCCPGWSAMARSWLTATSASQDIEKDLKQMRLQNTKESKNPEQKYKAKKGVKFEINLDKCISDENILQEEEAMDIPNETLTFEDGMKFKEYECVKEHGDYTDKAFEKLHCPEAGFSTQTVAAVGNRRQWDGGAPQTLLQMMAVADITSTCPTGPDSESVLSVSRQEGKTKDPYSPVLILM

SMILES	remaining binding at 10 µM [1] [%]	remaining binding at 10 µM (NEK5) [%]	remaining binding at 10 µM (IRAK3) [%]	remaining binding at 10 µM (CDC2L2) [%]	remaining binding at 10 µM (FYN) [%]	remaining binding at 10 µM (ABL1-phosphorylated) [%]	remaining binding at 10 µM (CDKL1) [%]	remaining binding at 10 µM (LIMK2) [%]	remaining binding at 10 µM (AMPK-alpha1) [%]	remaining binding at 10 µM (CSNK2A1) [%]	remaining binding at 10 µM (CSNK1A1) [%]	remaining binding at 10 µM (EPHA5) [%]	remaining binding at 10 µM [2] [%]	remaining binding at 10 µM (TNK1) [%]	remaining binding at 10 µM (MYLK) [%]	remaining binding at 10 µM (ERK1) [%]	remaining binding at 10 µM (MYLK2) [%]	remaining binding at 10 µM (MYO3A) [%]	remaining binding at 10 µM (DYRK1A) [%]	remaining binding at 10 µM (FLT3(D835H)) [%]	other results
COc1ccc(-c2cnccc2-c2cnc(NC(=O)C(C)C)s2)c(C(F)(F)F)c1 [CRT0105446, N-{5-[3-(4-Methoxy-2-trifluoromethyl-phenyl)-pyridin-4-yl]-hiazol-2-yl}-isobutyramide]	16	99	89	59	99	77	80	1.1	1.1	95	100	100	89	67	100	100	49	100	76	15	remaining binding at 10 µM [3]: 98%; remaining binding at 10 µM (FGFR1): 98%
Cc1ccc(-c2cnccc2-c2cnc(Nc3ccc(O)cc3)s2)c(Cl)c1 [CRT0105950, 4-{5-[3-(2-Chloro-4-methyl-phenyl)-pyridin-4-yl]-thiazol-2-ylamino}-phenol]	2.9	65	8.1	89	49	70	77	0	2.1	60	88	100	50	3.7	28	96	49	65	30	0.95	remaining binding at 10 µM [3]: 64%; remaining binding at 10 µM (FGFR1): 5%
